According to patent US20230048888A1, “USE OF TRIAZOLOTRIAZINE DERIVATIVE IN TREATMENT OF DISEASES” (ZHEJIANG VIMGREEN PHARMACEUTICALS, LTD., priority 2019, published 2023):

Assays:
[1] = tested on: reserpine-induced dyskinesia; test: Mouse reserpine-induced dyskinesia model (Laboras spontaneous activity); type: in vivo, CD1 mice
Text: Reserpine is an indole alkaloid drug, which can inhibit the reuptake of noradrenergic neuron terminals to lead to slowed movement or incompetence, thereby inducing clinical symptoms similar to those of the Parkinson's disease. Its mechanism is as follows: the reserpine can block the transport of irreversible monoamines such as DA, 5-hydroxytryptamine (5-HT) and norepinephrine (NA) in vesicles, such that the monoamines are degraded in cells to consume central and peripheral monoamines, and rapidly reduce the level of monoamines, resulting in dyskinesias and other Parkinson's disease-like symptoms. An A2A receptor antagonist was administered to evaluate if the compound under test can ameliorate the dyskinesia of the mice. The evaluation indicators include walking distance, walking time, number of standings and standing time. […] The total number of actually used animals was 90. The animals were purchased from Charles River Laboratories in Beijing (Animal Certificate Number: 1100112011009984) and raised in the animal house of ChemPartner in Shanghai (Experimental Animal License: SYXK (Shanghai) 2017-0018). The animal house has an SPF environment. On the first day of the test, a single subcutaneous injection of 0.1% acetic acid or 0.6 mg/kg reserpine was performed based on the pre-set grouping and time points. After the injection, the animals were put back to rearing cages and pushed back to the original rearing room. The activity test was carried out on the second day of the test, and before the test, the Laboras system needed to be calibrated in advance to make it in a normal working state. […] The mice were put into an independent Laboras test box 50 minutes after the administration, and the Laboras behavior recording system was started up after 10 minutes of adaptation. The current moment is the 1st hour after the last administration for the animals, and the animals were recorded continuously for 60 minutes. After the test was completed, the Laboras behavior system automatically analyzed the walking distance (m), walking time (sec), the number of standings and standing time (sec) of the mice at 0-30 min, 30-60 min, 0-60 min and every 10 min. All measurement data were represented as mean±standard error of mean (mean±SEM), and check analysis was performed by Prism 8.0 statistical software.

[2] = Pharmacokinetics of Compounds 27, 16, 14 and 22 in SD rats; type: in vivo; settings: for AUC(0-t) / Cmax / half-life / clearance: Sprague-Dawley, rat, in vivo; for clearance: read-out: Cl—pred (converted)
Text: WinNonlin® 6.4 was used as the calculation software for PK parameters.

[3] = target: T1, Human adenosine ADORA2B receptor membrane protein (Homo sapiens, UniProt P29275); test: Radioisotope ligand competitive binding, ADORA2B ([3H] DPCPX); settings: ADORA2B (IC50, nM, n = 3), binding test
T1 construct: purchased PerkinElmer ES-013-M400UA
T1 sequence (P29275 1-332): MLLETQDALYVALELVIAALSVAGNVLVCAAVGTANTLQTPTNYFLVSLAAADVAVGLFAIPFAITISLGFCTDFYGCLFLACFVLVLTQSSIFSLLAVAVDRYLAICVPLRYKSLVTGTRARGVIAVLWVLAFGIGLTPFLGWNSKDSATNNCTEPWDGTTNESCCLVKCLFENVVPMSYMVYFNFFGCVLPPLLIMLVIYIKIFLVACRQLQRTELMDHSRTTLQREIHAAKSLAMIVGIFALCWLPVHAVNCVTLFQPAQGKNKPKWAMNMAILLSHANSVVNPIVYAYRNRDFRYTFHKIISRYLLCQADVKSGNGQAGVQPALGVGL
Description: ADORA2B: 50 mM HEPES pH 7.0, 5 mM MgCl2, 1 mM EDTA
4) Preparation of compounds: the test compounds and the reference compounds were separately diluted with 100% DMSO.
1 μL of a sample to be tested and 1 μL of a reference compound were added to a 96-well plate in sequence. […] 100 μL of cells and 100 μL of isotopes were added to all experimental wells. The 96-well plate was sealed; ADORA1, ADORA2B, and ADORA3 were incubated for 1 hour on a shaker (300 rpm) at room temperature (22° C.); and ADORA2A was incubated for 2 hours on a shaker (300 rpm) at room temperature (22° C.). At the same time, a GF/C filter plate was soaked with ADORA1, ADORA2A, ADORA2B, and ADORA3 by using 0.3% PEI for at least 30 minutes at room temperature, at 50 μL/well. After the incubation was completed, the incubated reaction system was collected onto the GF/C filter plate with a Harvester, washed 4 times and then dried for 0.5 hours in an oven at 50° C. The bottom of the dried GF/C filter plate was sealed with a film, 50 μL of scintillation solution was added to each well, which was then sealed with a Top-seal-A film. With Microbeta readings, the data was analyzed by GraphPad Prism 5.0.
% Inhibition=100×(1−(Sample_raw value−Low control_Average)/(High control_Average−Low control_Average))
The data was fitted with “log(inhibitor) vs response-variable slope” in GraphPad Prism 5.0 to obtain IC50.

[4] = Pharmacokinetics of test compounds in SD rats (15.2; IV and PO, mixed administration); type: in vivo; settings: for Cl_pred / AUC(0-t) / Cmax / half-life: IV; for AUC(0-t) / Cmax / half-life: male, Sprague-Dawley, rat, plasma; for half-life: read-out: T½ (converted)
[5] = 3 mg/kg intragastric, 30-60 min
[6] = 10 mg/kg intragastric, 0-30 min
[7] = 10 mg/kg intragastric, 0-60 min
[8] = 10 mg/kg intragastric, 30-60 min
[9] = 30 mg/kg intragastric, 0-30 min
[10] = 30 mg/kg intragastric, 0-60 min
[11] = 30 mg/kg intragastric, 30-60 min

Row | SMILES | Number of standings [1, 6] | Walking distance [1, 6] [m] | Walking time [1, 6] [s] | Number of standings [1, 7] | Walking distance [1, 7] [m] | Walking time [1, 7] [s] | Number of standings [1, 8] | Walking distance [1, 8] [m] | Walking time [1, 8] [s] | AUC(0-t) ([2]; IV, dose 1 (mg/kg)) [ng·h/mL] | Cmax ([2]; IV, dose 1 (mg/kg)) [ng/mL] | half-life ([2]; IV, dose 1 (mg/kg)) [min] | clearance ([2]; IV, dose 1 (mg/kg)) [mL/min/kg] | IC50 ([3]; Table 10 (IC50)) [nM] | IC50 ([3]; Table 11) [nM] | Cl_pred ([4]; 1 mg/kg) [mL/min/kg] | AUC(0-t) ([4]; 1 mg/kg) [ng·h/mL] | Cmax ([4]; 1 mg/kg) [ng/mL] | half-life ([4]; 1 mg/kg) [min] | other results
1 | CC(=O)O.Nc1nc(NCCc2ccc(NC3COC3)cc2)nc2nc(-c3ccco3)nn12 [Acetate of Compound 22, 2-(furan-2-yl)-N5-(4-(oxetane-3-ylamino)phenethyl)-[1,2,4]triazolo[1,5-a][1,3,5]triazine-5,7-diamine acetate] | 75.6 ± 8 | 10.7 ± 1.0 | 160.5 ± 10.8 | 116 ± 15.7 | 19.2 ± 2.9 | 245.4 ± 29.1 | 40.3 ± 11.4 | 8.5 ± 2.3 | 84.9 ± 22.4 |  |  |  |  |  |  |  |  |  |  | Number of standings ([1]; 3 mg/kg intragastric, 0-30 min): 36.7 ± 5.9; Walking distance ([1]; 3 mg/kg intragastric, 0-30 min): 4.3 ± 0.7 m; Walking time ([1]; 3 mg/kg intragastric, 0-30 min): 77.8 ± 11.0 s; Number of standings ([1]; 3 mg/kg intragastric, 0-60 min): 49.6 ± 12.2; Walking distance ([1]; 3 mg/kg intragastric, 0-60 min): 6.9 ± 2.1 m; Walking time ([1]; 3 mg/kg intragastric, 0-60 min): 108.5 ± 23.0 s; Number of standings [1, 5]: 12.9 ± 6.8; Walking distance [1, 5]: 2.6 ± 1.6 m; Walking time [1, 5]: 30.7 ± 13.9 s; Number of standings [1, 9]: 98.7 ± 12.6; Walking distance [1, 9]: 11.3 ± 1.1 m; Walking time [1, 9]: 175.6 ± 12.4 s; Number of standings [1, 10]: 178 ± 20.9; Walking distance [1, 10]: 27.1 ± 2.5 m; Walking time [1, 10]: 311.0 ± 22.3 s; Number of standings [1, 11]: 79.4 ± 10.1; Walking distance [1, 11]: 15.9 ± 1.9 m; Walking time [1, 11]: 135.4 ± 12.8 s
2 | Nc1nc(NCCc2ccc(NC3COC3)cc2)nc2nc(-c3ccco3)nn12 [Compound 22, 2-(furan-2-yl)-N5-(4-(oxetan-3-ylamino)phenethyl)-[1,2,4]triazolo[1,5-a][1,3,5]triazine-5,7-diamine] |  |  |  |  |  |  |  |  |  | 1770 | 2350 | 60 | 9.5 | 344 ± 181 | 310 |  |  |  |  | Cl—F—pred ([2]; PO, dose 3 (mg/kg)): 25.3 mL/min/kg; F ([2]; PO, dose 3 (mg/kg)): 39.49%; AUC(0-t) ([2]; PO, dose 3 (mg/kg)): 2100 ng·h/mL; Cmax ([2]; PO, dose 3 (mg/kg)): 580 ng/mL; half-life ([2]; PO, dose 3 (mg/kg)): 198 min
3 | COCCNc1ccc(CCNc2nc(N)n3nc(-c4ccco4)nc3n2)cc1 [Compound 27, 2-(furan-2-yl)-N5-(4-((2-methoxyethyl)amino)phenethyl)-[1,2,4]triazolo[1,5-a][1,3,5]triazine-5,7-diamine] |  |  |  |  |  |  |  |  |  | 477 | 1340 | 30.6 | 36 |  |  | 188.857 | 83.8 | 139 | 28.2 | Cl—F—pred ([2]; PO, dose 5 (mg/kg)): 147 mL/min/kg; F ([2]; PO, dose 5 (mg/kg)): 33.85%; AUC(0-t) ([2]; PO, dose 5 (mg/kg)): 484 ng·h/mL; Cmax ([2]; PO, dose 5 (mg/kg)): 318 ng/mL; half-life ([2]; PO, dose 5 (mg/kg)): 262 min
4 | Cn1nnc(-c2ccc(CCNc3nc(N)n4nc(-c5ccco5)nc4n3)cc2)n1 [Compound 40, N5-(4-(2-methyl-2H-tetrazol-5-yl)phenethyl)-2-(furan-2-yl)-[1,2,4]triazolo[1,5-a][1,3,5]triazine-5,7-diamine] |  |  |  |  |  |  |  |  |  |  |  |  |  | 268 ± 87.5 | 242 | 11.834 | 1410 | 1280 | 46.8 | Cl_pred ([4]; 1.64 mg/kg): 27.0478 mL/min/kg; Cl_F_pred ([4]; PO, […]): 23.254 mL/min/kg; F ([4]; PO, […]): 116.3%; AUC(0-t) ([4]; 1.64 mg/kg): 1010 ng·h/mL; Cmax ([4]; 1.64 mg/kg): 1310 ng/mL; half-life ([4]; 1.64 mg/kg): 31.8 min
5 | CCn1c(=O)c2c(nc(/C=C/c3ccc(OC)c(OC)c3)n2C)n(CC)c1=O [Istradefylline, reference compound] | 94.3 ± 11.1 | 11.9 ± 1.4 | 177.5 ± 16.0 | 165 ± 20 | 23.7 ± 3.2 | 298.3 ± 28.4 | 70.6 ± 10.6 | 11.8 ± 2.0 | 120.8 ± 16.0 |  |  |  |  |  |  |  |  |  |  | 
